Measured values published in PubChem BioAssay AID200 (DTP/NCI, 2004).
“And” between values parts separate entries of the source, which are not always exact repeats. Equal entries are not always repeated. Toxic doses and inconclusive results are not listed. Where a SMILES comes first, the peptide text is derived from it. [ ]: non-standard residue; d: D form. Tyr(3,5-I2) = N[CH](Cc1cc(I)c(O)c(I)c1)C(=O)O

System: B6C3F1 mice, B16 melanoma ip, median survival T/C
Assay: NCI In Vivo Anticancer Drug Screen. Data for tumor model B16 Melanoma (intraperitoneal) in B6C3F1 mice
Settings: endpoint: median survival time, higher = longer survival
How it was run: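 Mice bearing transplanted tumor were dosed with compound or vehicle, and survival was recorded. Activity is expressed as the treated-group measurement (T) divided by the vehicle control measurement (C).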

[1] = dose: 1.0 mg/kg/injection, schedule: Q01DX009 (ip), vehicle: saline
[2] = dose: 4.0 mg/kg/injection, schedule: Q01DX009 (ip), vehicle: saline
[3] = dose: 0.25 mg/kg/injection, schedule: Q01DX009 (ip), vehicle: saline
[4] = dose: 0.5 mg/kg/injection, schedule: Q01DX009 (ip), vehicle: saline
[5] = dose: 50.0 mg/kg/injection, schedule: Q01DX009 (ip), vehicle: saline with Tween-80
[6] = dose: 100.0 mg/kg/injection, schedule: Q01DX009 (ip), vehicle: saline with Tween-80
[7] = dose: 200.0 mg/kg/injection, schedule: Q01DX009 (ip), vehicle: saline with Tween-80
[8] = dose: 25.0 mg/kg/injection, schedule: Q01DX009 (ip), vehicle: saline with Tween-80
[9] = dose: 400.0 mg/kg/injection, schedule: Q01DX009 (ip), vehicle: saline with Tween-80

## Nc1n[nH]c2ccccc12
dose: 25.0 mg/kg/injection, schedule: Q01DX009 (ip), vehicle: acid diluted with saline
  T/C: 101 % of control
dose: 50.0 mg/kg/injection, schedule: Q01DX009 (ip), vehicle: acid diluted with saline
  T/C: 102 % of control
dose: 100.0 mg/kg/injection, schedule: Q01DX009 (ip), vehicle: acid diluted with saline
  T/C: 95 % of control
dose: 200.0 mg/kg/injection, schedule: Q01DX009 (ip), vehicle: acid diluted with saline
  T/C: 88 % of control

## C(COCCOCC1CO1)OCCOCC1CO1 (stereo not drawn)
dose: 12.5 mg/kg/injection, schedule: Q01DX009 (ip), vehicle: saline
  T/C: 108 % of control
dose: 25.0 mg/kg/injection, schedule: Q01DX009 (ip), vehicle: saline
  T/C: 104 % of control
dose: 50.0 mg/kg/injection, schedule: Q01DX009 (ip), vehicle: saline
  T/C: 107 % of control
dose: 200.0 mg/kg/injection, schedule: Q01DX009 (ip), vehicle: saline
  T/C: 153 % of control
dose: 400.0 mg/kg/injection, schedule: Q01DX009 (ip), vehicle: saline
  T/C: 178 % of control

## CN(N=O)C(N)=O
dose: 12.0 mg/kg/injection, schedule: Q01DX009 (ip), vehicle: saline
  T/C: 188 % of control

## CC1CN1P1(N2CC2C)=NP(N2CC2C)(N2CC2C)=NP(N2CC2C)(N2CC2C)=N1 (stereo not drawn)
[1]
  T/C: 98 % of control
dose: 1.0 mg/kg/injection, schedule: Q02DX009 (ip), vehicle: saline
  T/C: 96 % of control
dose: 2.0 mg/kg/injection, schedule: Q01DX009 (ip), vehicle: saline
  T/C: 100 % of control
dose: 2.0 mg/kg/injection, schedule: Q02DX009 (ip), vehicle: saline
  T/C: 102 % of control
[2]
  T/C: 106 % of control
dose: 4.0 mg/kg/injection, schedule: Q02DX009 (ip), vehicle: saline
  T/C: 101 % of control
dose: 8.0 mg/kg/injection, schedule: Q01DX009 (ip), vehicle: saline
  T/C: 115 % of control
dose: 8.0 mg/kg/injection, schedule: Q02DX009 (ip), vehicle: saline
  T/C: 105 % of control
dose: 16.0 mg/kg/injection, schedule: Q01DX009 (ip), vehicle: saline
  T/C: 117 % of control
dose: 32.0 mg/kg/injection, schedule: Q02DX009 (ip), vehicle: saline
  T/C: 122 % of control
dose: 64.0 mg/kg/injection, schedule: Q01DX009 (ip), vehicle: saline
  T/C: 118 % of control
dose: 64.0 mg/kg/injection, schedule: Q02DX009 (ip), vehicle: saline
  T/C: 94 % of control

## COc1cc2cc(c1Cl)N(C)C(=O)CC(OC(=O)C(C)NC(=O)C(C)C)C1(C)OC1C(C)C1CC(O)(NC(=O)O1)C(OC)/C=C/C=C(C)C2OC (stereo not drawn)
dose: 4.0 micrograms/kg/injection, schedule: Q01DX009 (ip), vehicle: distilled water + alcohol
  T/C: 102 % of control
dose: 8.0 micrograms/kg/injection, schedule: Q01DX009 (ip), vehicle: distilled water + alcohol
  T/C: 114 % of control

## COc1cc([C@@H]2c3cc4c(cc3[C@@H](OC3OC5CO[C@@H](c6cccs6)OC5C(O)C3O)[C@H]3COC(=O)[C@H]23)OCO4)cc(OC)c1O (stereo partly drawn)
[3]
  T/C: 110 % of control
[4]
  T/C: 123 % of control
[1]
  T/C: 122 % of control
[2]
  T/C: 162 % of control

## NC(=O)c1[nH]nc(C2OC(CO)C(O)C2O)c1O (stereo not drawn)
dose: 0.13 mg/kg/injection, schedule: Q01DX009 (ip), vehicle: saline
  T/C: 106 % of control
[3]
  T/C: 103 % of control
[4]
  T/C: 111 % of control
[1]
  T/C: 118 % of control

## CC(=O)[O][Pb]([O]C(C)=O)([c]1ccccc1)[c]1ccccc1
dose: 6.25 mg/kg/injection, schedule: Q01DX009 (ip), vehicle: Klucel (hydroxypropylcellulose) (HPC)
  T/C: 88 % of control
dose: 12.5 mg/kg/injection, schedule: Q01DX009 (ip), vehicle: Klucel (hydroxypropylcellulose) (HPC)
  T/C: 90 % of control
dose: 25.0 mg/kg/injection, schedule: Q01DX009 (ip), vehicle: Klucel (hydroxypropylcellulose) (HPC)
  T/C: 88 % of control
dose: 50.0 mg/kg/injection, schedule: Q01DX009 (ip), vehicle: Klucel (hydroxypropylcellulose) (HPC)
  T/C: 93 % of control

## CCOc1ncc([N+](=O)[O-])c(OCC)n1
[5]
  T/C: 89 % of control and 106 % of control
[6]
  T/C: 103 % of control
[7]
  T/C: 91 % of control and 96 % of control

## CC(C)(O)/C=C/C(=O)[C@](C)(O)[C@H]1[C@H](O)C[C@@]2(C)[C@@H]3CC=C4[C@@H](C[C@H](O)C(=O)C4(C)C)[C@]3(C)C(=O)C[C@]12C
dose: 0.5 mg/kg/injection, schedule: Q01DX009 (ip), vehicle: saline + Tween-80 + alcohol
  T/C: 102 % of control
dose: 1.0 mg/kg/injection, schedule: Q01DX009 (ip), vehicle: saline + Tween-80 + alcohol
  T/C: 98 % of control

## CC1(C)N=C(N)N=C(N)N1c1ccc(CCCCc2ccc(S(=O)(=O)F)cc2Cl)c(Cl)c1
dose: 1.56 mg/kg/injection, schedule: Q01DX009 (ip), vehicle: other
  T/C: 100 % of control
dose: 1.56 mg/kg/injection, schedule: Q01DX009 (ip), vehicle: saline with Tween-80
  T/C: 122 % of control
dose: 3.12 mg/kg/injection, schedule: Q01DX009 (ip), vehicle: other
  T/C: 104 % of control
dose: 6.25 mg/kg/injection, schedule: Q01DX009 (ip), vehicle: other
  T/C: 109 % of control
dose: 12.5 mg/kg/injection, schedule: Q01DX009 (ip), vehicle: other
  T/C: 102 % of control
[8]
  T/C: 156 % of control

## C=C1C(O)C2OC3(CCC(/C=C/C(C)C4CC5(C)SC5C5(OC(CC(C)(O)C(=O)O)CCC5O)O4)O3)CCC2OC1C(O)CC(C)C1OC2(CCCCO2)CCC1C (stereo not drawn)
dose: 1.25 micrograms/kg/injection, schedule: Q01DX009 (ip), vehicle: saline + alcohol
  T/C: 104 % of control
dose: 2.5 micrograms/kg/injection, schedule: Q01DX009 (ip), vehicle: saline + alcohol
  T/C: 111 % of control
dose: 5.0 micrograms/kg/injection, schedule: Q01DX009 (ip), vehicle: saline + alcohol
  T/C: 120 % of control
dose: 20.0 micrograms/kg/injection, schedule: Q01DX009 (ip), vehicle: saline + alcohol
  T/C: 97 % of control

## CC(C)NC(=O)OCc1c(COC(=O)NC(C)C)c(-c2ccc(Cl)c(Cl)c2)n2c1CCC2
dose: 2.5 mg/kg/injection, schedule: Q01DX009 (ip), vehicle: Klucel (hydroxypropylcellulose) (HPC)
  T/C: 115 % of control
dose: 5.0 mg/kg/injection, schedule: Q01DX009 (ip), vehicle: Klucel (hydroxypropylcellulose) (HPC)
  T/C: 158 % of control
dose: 5.0 mg/kg/injection, schedule: Q01DX009 (ip), vehicle: saline with Tween-80
  T/C: 159 % of control
dose: 6.25 mg/kg/injection, schedule: Q01DX009 (ip), vehicle: distilled water + Tween-80
  T/C: 166 % of control and 169 % of control and 176 % of control
dose: 10.0 mg/kg/injection, schedule: Q01DX009 (ip), vehicle: Klucel (hydroxypropylcellulose) (HPC)
  T/C: 153 % of control and 175 % of control
dose: 10.0 mg/kg/injection, schedule: Q01DX009 (ip), vehicle: saline with Tween-80
  T/C: 196 % of control
dose: 20.0 mg/kg/injection, schedule: Q01DX009 (ip), vehicle: Klucel (hydroxypropylcellulose) (HPC)
  T/C: 209 % of control
dose: 20.0 mg/kg/injection, schedule: Q01DX009 (ip), vehicle: saline with Tween-80
  T/C: 191 % of control
dose: 40.0 mg/kg/injection, schedule: Q01DX009 (ip), vehicle: Klucel (hydroxypropylcellulose) (HPC)
  T/C: 235 % of control and 256 % of control
dose: 40.0 mg/kg/injection, schedule: Q01DX009 (ip), vehicle: saline with Tween-80
  T/C: 251 % of control
dose: 80.0 mg/kg/injection, schedule: Q01DX009 (ip), vehicle: saline with Tween-80
  T/C: 89 % of control

## CC(=O)NC(Cc1ccccc1)C(=O)NC(Cc1cc(I)c(O)c(I)c1)C(=O)O (stereo not drawn) (Ac-Phe-[Tyr(3,5-I2)]-OH; configuration not given here)
dose: 400.0 mg/kg/injection, schedule: Q01DX009 (ip), vehicle: Klucel (hydroxypropylcellulose) (HPC)
  T/C: 89 % of control

## CC(=O)Nc1ccc(/C=N/NC(N)=S)cc1
[8]
  T/C: 93 % of control
[5]
  T/C: 97 % of control
[6]
  T/C: 90 % of control
[7]
  T/C: 88 % of control
[9]
  T/C: 92 % of control

## CCCCCCC(=O)CC(SCC)c1ccccc1Cl (stereo not drawn)
[8]
  T/C: 86 % of control
[6]
  T/C: 93 % of control
[9]
  T/C: 96 % of control

## COc1cc2c(cc1O)C1CC(CC3CCCCN31)OC(=O)/C=C\c1ccc(O)c-2c1 (stereo not drawn)
dose: 15.0 mg/kg/injection, schedule: Q01DX009 (ip), vehicle: saline
  T/C: 101 % of control
dose: 30.0 mg/kg/injection, schedule: Q01DX009 (ip), vehicle: saline
  T/C: 104 % of control
dose: 60.0 mg/kg/injection, schedule: Q01DX009 (ip), vehicle: saline
  T/C: 114 % of control
dose: 120.0 mg/kg/injection, schedule: Q01DX009 (ip), vehicle: saline
  T/C: 102 % of control

## COc1ccc(OC)c(/C=C/c2ccnc3ccccc23)c1
dose: 50.0 mg/kg/injection, schedule: Q01DX009 (ip), vehicle: saline sonified
  T/C: 95 % of control
dose: 100.0 mg/kg/injection, schedule: Q01DX009 (ip), vehicle: saline sonified
  T/C: 107 % of control
dose: 200.0 mg/kg/injection, schedule: Q01DX009 (ip), vehicle: saline sonified
  T/C: 117 % of control
